This note sets out measurements from ChEMBL document CHEMBL1201862, “PubChem BioAssay data set” (2004).

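Values below derive from 48-hour exposures of cells grown in 96-well plates, with endpoints linearly interpolated between the two concentrations bracketing the appropriate inhibition level. GI50 = concentration required for 50% inhibition of growth.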 Active and inactive are the calls of the source. Cut-off read from the data, not from the text of the source: active = GI50 up to about 1.1 µM and inactive = higher.

Some test systems named below: COLO 205; SK-MEL-28; MDA-MB-435; Hs-578T; HCC 2998; ACHN; IGROV-1; NCI-H522; A498; SK-MEL-5; HOP-62; HCT-116; DU-145; NCI-H460; MDA-MB-231; Malme-3M; OVCAR-4; UACC-257; SK-OV-3; PC-3.
What all share (assay): inhibition of tumour cell growth, NCI panel, 48 h

Turning to `CC(=O)OCC1OC(n2c(-c3cccs3)c3c(c(C#N)c2=S)-c2ccccc2CC3)C(OC(C)=O)C(OC(C)=O)C1OC(C)=O` (stereo not given), the GI50 was 9.35 µM (inactive) with COLO 205; 13.7 µM (inactive) with SK-MEL-28; 2.77 µM (inactive) with MDA-MB-435; 7.52 µM (inactive) with Hs-578T; 8.73 µM (inactive) with HCC 2998; 9.64 µM (inactive) with ACHN. In addition, the GI50 in the experiment on IGROV-1 was 9.04 µM (inactive); in the experiment with NCI-H522, 10.7 µM (inactive); in the experiment with A498, 7.66 µM (inactive); in the experiment with SK-MEL-5, 6.18 µM (inactive); in the experiment with HOP-62, 11.9 µM (inactive); in the experiment with HCT-116 it was 7.67 µM (inactive). In addition, the GI50 was 23.9 µM (inactive) in the experiment on DU-145; 11.5 µM (inactive) with NCI-H460; 16.6 µM (inactive) in the experiment with MDA-MB-231; 7.36 µM (inactive) in the experiment with Malme-3M; 5.32 µM (inactive) in the experiment on OVCAR-4; 12.8 µM (inactive) in the experiment on UACC-257. In addition, the values for the GI50 with SK-OV-3 and in the experiment on PC-3 were 20.2 µM (inactive) and 9.04 µM (inactive), respectively.

In the case of `Nc1ncnc2oc(C3OC(COC(=O)c4ccccc4)C(OC(=O)c4ccccc4)C3OC(=O)c3ccccc3)nc12` (stereo not given), the GI50 in the experiment with COLO 205 was > 100 µM (inactive); in the experiment on SK-MEL-28, > 100 µM (inactive); in the experiment with MDA-MB-435, > 100 µM (inactive); in the experiment with Hs-578T, 49.2 µM (inactive); with HCC 2998, > 100 µM (inactive); in the experiment on ACHN, > 100 µM (inactive). The GI50 in the experiment on IGROV-1 is > 100 µM (inactive); with NCI-H522 it was > 100 µM (inactive); in the experiment with A498, 14.8 µM (inactive); in the experiment with SK-MEL-5, > 100 µM (inactive); in the experiment with HOP-62, > 100 µM (inactive); with HCT-116, > 100 µM (inactive). Besides, the GI50 was > 100 µM (inactive) in the experiment on DU-145; > 100 µM (inactive) in the experiment with NCI-H460; > 100 µM (inactive) in the experiment on MDA-MB-231; 96.2 µM (inactive) in the experiment on Malme-3M; > 100 µM (inactive) with OVCAR-4; > 100 µM (inactive) in the experiment with UACC-257. In addition, the GI50 was > 100 µM (inactive) in the experiment with SK-OV-3 and 98.6 µM (inactive) with PC-3.

On to `O=C1C=CC(=O)c2c1ccc1c3ccccc3n(CCCCCCCCCCCCn3c4ccccc4c4ccc5c(c43)C(=O)C=CC5=O)c21`, for which the GI50 in the experiment on COLO 205 was > 100 µM (inactive); with SK-MEL-28, > 100 µM (inactive); with MDA-MB-435, > 100 µM (inactive); in the experiment on Hs-578T it was > 100 µM (inactive); in the experiment with HCC 2998 it was > 46.5 µM (inactive); in the experiment on ACHN, > 100 µM (inactive). In addition, the GI50 in the experiment with IGROV-1 is > 100 µM (inactive); in the experiment on NCI-H522 it was > 83.6 µM (inactive); in the experiment with A498, > 100 µM (inactive); in the experiment with SK-MEL-5, > 100 µM (inactive); in the experiment with HOP-62, > 85.5 µM (inactive); in the experiment on HCT-116 it was > 100 µM (inactive). In addition, the GI50 with DU-145, with NCI-H460, in the experiment on MDA-MB-231, in the experiment on Malme-3M, in the experiment on OVCAR-4 and in the experiment on UACC-257 was > 100 µM (inactive) throughout. The GI50 in the experiment with SK-OV-3 and in the experiment with PC-3 was > 100 µM (inactive) throughout.

With `CC(=O)c1c2c(c3ccccc3c1O)O[C@@H]1OCC[C@H]21`, the GI50 in the experiment with COLO 205, in the experiment with SK-MEL-28, with MDA-MB-435, in the experiment on Hs-578T, with HCC 2998 and with ACHN was > 100 µM (inactive) in each case. Further, the GI50 in the experiment on IGROV-1, in the experiment on NCI-H522, in the experiment with A498, in the experiment with SK-MEL-5, in the experiment on HOP-62 and with HCT-116 was > 100 µM (inactive) throughout. Moreover, the GI50 is > 100 µM (inactive) with DU-145; > 100 µM (inactive) in the experiment with NCI-H460; > 100 µM (inactive) in the experiment with MDA-MB-231; > 100 µM (inactive) with Malme-3M; 53.3 µM (inactive) in the experiment on OVCAR-4; > 100 µM (inactive) in the experiment on UACC-257. In addition, the GI50 with SK-OV-3 and in the experiment on PC-3 was > 100 µM (inactive) each time.

With `Cc1cc(C(C)(C)C)c(OCCCN2CCOCC2)c(C(C)(C)C)c1`, the GI50 in the experiment on COLO 205 was 15.7 µM (inactive); with SK-MEL-28 it was 16.4 µM (inactive); with MDA-MB-435, 19.4 µM (inactive); with Hs-578T it was 20.7 µM (inactive); in the experiment on HCC 2998, 16.7 µM (inactive); in the experiment on ACHN it was 17.4 µM (inactive). For the same compound, the GI50 was 19.5 µM (inactive) with IGROV-1; 17.9 µM (inactive) in the experiment with NCI-H522; 18.9 µM (inactive) with A498; 15.9 µM (inactive) in the experiment on SK-MEL-5; 19.5 µM (inactive) with HOP-62; 16.7 µM (inactive) with HCT-116. The GI50 is 17.1 µM (inactive) in the experiment on DU-145; 30.9 µM (inactive) in the experiment on NCI-H460; 17.4 µM (inactive) in the experiment with MDA-MB-231; 20.1 µM (inactive) in the experiment on Malme-3M; 15.9 µM (inactive) in the experiment with OVCAR-4; 17.3 µM (inactive) in the experiment on UACC-257. Also, the GI50 is 20 µM (inactive) in the experiment with SK-OV-3 and 15.8 µM (inactive) in the experiment with PC-3.

Turning to `COc1cc2ccc1OCc1cccc(n1)COc1ccc(cc1OC)/C=N\CCNCC/N=C\2`, the GI50 in the experiment with COLO 205 is > 100 µM (inactive); in the experiment with SK-MEL-28, > 100 µM (inactive); in the experiment on MDA-MB-435 it was > 100 µM (inactive); in the experiment with Hs-578T it was 35.4 µM (inactive); in the experiment on HCC 2998 it was > 100 µM (inactive); in the experiment on ACHN, > 100 µM (inactive). In addition, the GI50 in the experiment on IGROV-1 was > 100 µM (inactive); in the experiment on NCI-H522, 34.4 µM (inactive); with A498, > 100 µM (inactive); in the experiment on SK-MEL-5, > 100 µM (inactive); in the experiment on HOP-62, > 100 µM (inactive); in the experiment on HCT-116, 45.4 µM (inactive). For the same compound, the GI50 in the experiment on DU-145 was > 100 µM (inactive); with NCI-H460, > 100 µM (inactive); in the experiment with MDA-MB-231 it was 35.2 µM (inactive); in the experiment on Malme-3M, > 100 µM (inactive); in the experiment on OVCAR-4 it was > 100 µM (inactive); with UACC-257 it was > 100 µM (inactive). In addition, the GI50 with SK-OV-3 was 63.4 µM (inactive); with PC-3, > 100 µM (inactive).

`CC1OC(OC2C(O[C@H]3CC[C@@]4(C)C(=CC[C@H]5[C@@H]6C[C@@H]7O[C@]8(CC[C@@H](C)CO8)[C@@H](C)[C@@H]7[C@@]6(C)CC[C@@H]54)C3)OC(CO)C(O)C2O)C(O)C(O)C1O` (stereo not given in full): the GI50 with COLO 205 was 2.95 µM (inactive); with SK-MEL-28, 5.31 µM (inactive); in the experiment with MDA-MB-435, 1.41 µM (inactive); in the experiment on Hs-578T it was 1.86 µM (inactive); with HCC 2998, 1.11 µM (active); with ACHN it was 1.58 µM (inactive). In addition, the GI50 in the experiment with IGROV-1 is 2.8 µM (inactive); with NCI-H522, 1.28 µM (inactive); in the experiment on A498, 1.51 µM (inactive); in the experiment on SK-MEL-5, 3.97 µM (inactive); in the experiment on HOP-62 it was 1.34 µM (inactive); in the experiment on HCT-116, 1.54 µM (inactive). Besides, the GI50 was 1.26 µM (inactive) in the experiment with DU-145; 0.327 µM (active) in the experiment on NCI-H460; 1.14 µM (inactive) with MDA-MB-231; 3.15 µM (inactive) in the experiment on Malme-3M; 1.22 µM (inactive) with OVCAR-4; 1.8 µM (inactive) in the experiment on UACC-257. Besides, the GI50 in the experiment on SK-OV-3 is 3.05 µM (inactive); in the experiment with PC-3 it was 0.581 µM (active).

As to `FC(F)(F)c1ccc(C2ON=C(c3ccccc3)N2C23CC4CC(CC(C4)C2)C3)cc1` (stereo not given), the GI50 with COLO 205, with SK-MEL-28, with MDA-MB-435, with Hs-578T, in the experiment with HCC 2998 and in the experiment with ACHN was > 10 µM (inactive) throughout. The GI50 in the experiment on IGROV-1, with NCI-H522, with A498, with SK-MEL-5, in the experiment with HOP-62 and in the experiment with HCT-116 was > 10 µM (inactive) throughout. For the same compound, the GI50 in the experiment on DU-145, in the experiment on NCI-H460, in the experiment with MDA-MB-231, with Malme-3M, with OVCAR-4 and in the experiment on UACC-257 was > 10 µM (inactive) each time. For the same compound, the GI50 in the experiment on SK-OV-3 and with PC-3 was > 10 µM (inactive) each time.

`CCN(CC)CCNc1ccc2ncn3c4cc(OC)c(OC)c(O)c4c(=O)c1c23`: the GI50 with COLO 205 is 1.33 µM (inactive); in the experiment with SK-MEL-28, 14.4 µM (inactive); with MDA-MB-435 it was 10 µM (inactive); with Hs-578T, 13.2 µM (inactive); with HCC 2998 it was 10.5 µM (inactive); in the experiment with ACHN, 3.76 µM (inactive). In addition, the GI50 in the experiment with IGROV-1 is 12.5 µM (inactive); in the experiment on NCI-H522, 12.6 µM (inactive); with A498, 15.5 µM (inactive); in the experiment with SK-MEL-5, 15.5 µM (inactive); with HOP-62 it was 11.4 µM (inactive); in the experiment on HCT-116 it was 0.556 µM (active). The GI50 in the experiment with DU-145 was 10.2 µM (inactive); in the experiment on NCI-H460 it was 1.39 µM (inactive); in the experiment with MDA-MB-231, 5.93 µM (inactive); with Malme-3M it was 18 µM (inactive); in the experiment on OVCAR-4, 4.9 µM (inactive); with UACC-257 it was 22.9 µM (inactive). For the same compound, the GI50 with SK-OV-3 was 12.5 µM (inactive); in the experiment on PC-3, 6.52 µM (inactive).
